Measured values from patent US20160120894A1, “USE OF ADENOSINE ASPARTATE IN THE DI[…] M[…] INFLAMMATORY-[…] AND ITS REVERSAL” (UNIVERSIDAD NACIONAL AUTÓNOMA DE MÉXICO, priority 2013, published 2016).
“Also recorded” adds a separate entry of the source.

Tests used:
[1] = test system: cytokines in liver homogenate; assay: Reversal of established CCl4 cirrhosis: cytokines in liver homogenate by Luminex; format: in vivo, Wistar rats; details: cirrhotic rats, IFC-305 50 mg/kg i.p.
Description: FIGS. 4A to 4D refer to the obtained results for cytokines in liver homogenate evaluated by Luminex® in the different experimental groups of cirrhotic animals (Ci) treated with IFC-305 and saline for five and ten weeks (Ci SS 5s, Ci IFC 5s, Ci SS 10s, and Ci IFC 10s). Concentration (pg/mL)±standard deviation is shown.
(§1) 100 g male Wistar rats were used, with free access to food and water. Cirrhosis was induced with 25 μl of CCl4 in vegetable oil three times a week for ten weeks. Once cirrhosis is established, the animals were divided into five groups: group I, treatment with CCl4 is suspended, control animals of cirrhosis are sacrificed, groups II and III is allowed to proceed cirrhosis and received three intraperitoneal injections of saline per week for 5 to 10 weeks, groups IV and V received three intraperitoneal injections of the compound at a dose of 50 mg/kg for 5 to 10 weeks; at the moment of sacrifice, serum and liver samples taken.

[2] = test system: serum cytokines; assay: Reversal of established CCl4 cirrhosis: serum cytokines by Luminex; format: in vivo, Wistar rats; details: cirrhotic rats, IFC-305 50 mg/kg i.p. three times a week vs saline
Description: FIGS. 3A to 3C refer to the obtained results for serum cytokines evaluated by Luminex® in the different experimental groups of cirrhotic animals (Ci) treated with IFC-305 and saline for five and ten weeks (Ci SS 5s, Ci IFC 5s, Ci SS 10s and Ci IFC 10s post-treatment with CCl4). Concentration (pg/mL)±standard deviation is shown.
as §1

[3] = test system: serum cytokine; assay: Prevention of CCl4-induced cirrhosis: serum cytokines by Luminex; format: in vivo, rats
Excerpt: FIGS. 1A to 1C refer to the obtained results for serum cytokine evaluated by Luminex® at 4, 6 and 8 weeks of administration of CCl4 and CCl4+IFC. Concentration (pg/mL)±standard deviation is shown.
(§2) Cirrhosis is a disease chronic degenerative characterized by diffuse fibrosis and regenerative nodules distorting tissue architecture. The diffuse fibrosis is supported by a chronic inflammatory process. During this process, chemokines and cytokines that favor this process are generated. In a model of prevention of cirrhosis by treatment with adenosine aspartate, knowing having an antifibrogenic effect, would allow knowing the effect of this drug during the establishment of cirrhosis for 4, 6 and 8 weeks and its effect on response activation immune and inflammation.
(§3) In this study, four groups of six male rats of 100 g to 110 g were formed; the rats were treated simultaneously under the same doses with CCl4 (25 μl of carbon tetrachloride in vegetable oil) and IFC-305 (50 mg/Kg). All treatments were given three times a week for 4, 6 and 8 weeks; at the moment of sacrifice, of serum and liver were taken.

[4] = test system: Arginase I; assay: Reversal of established CCl4 cirrhosis: Western blot of Arginase I in liver homogenate; format: in vivo, Wistar rats; details: cirrhotic rats, IFC-305 50 mg/kg i.p., five and ten weeks
Description: FIG. 7 refers to Western blot Arginase I. Expression of total protein in liver homogenate in the different experimental groups treated with IFC-305 and saline for five and ten weeks.
as §1

[5] = test system: total macrophages (HIS36+/CD11b+) and inflammatory phenotype Kupffer cells (CD163+/CD11b/c+ (M1)); assay: Reversal of established CCl4 cirrhosis: distribution of liver macrophages by flow cytometry; format: in vivo, Wistar rats; details: cirrhotic rats, IFC-305 50 mg/kg i.p., five and ten weeks
Description: FIGS. 6A and 6B relate to the obtained results regarding the distribution of macrophages. […] Percentage (%) of Kupffer cells with respect to control±standard error.
as §1

[6] = test system: cytokines in liver homogenate; assay: Prevention of CCl4-induced cirrhosis: cytokines in liver homogenate by Luminex; format: in vivo, rats; details: CCl4+IFC-305 50 mg/Kg, 8 weeks
Excerpt: FIGS. 2A and 2B refer to the results obtained for cytokines in liver homogenate evaluated by Luminex® at 8 weeks of administration of CCl4 and CCl4+IFC-305. Concentration (pg/mL)±standard deviation is shown.
as §2, §3

[7] = test system: Kupffer cells (CD163+/CD11b+); assay: Prevention of CCl4-induced cirrhosis: kinetic of Kupffer cells in the liver by flow cytometry; format: in vivo, rats; details: CCl4+IFC-305 vs CCl4; 4, 6, 8 and 10 weeks
Description: FIG. 5 refers to the kinetic of Kupffer cells (CD163+/CD11b+) in the liver, assessed by flow cytometry at 4, 6, 8 and 10 weeks, administration with CCl4, IFC-305 and CCl4+IFC-305 to same time. % Kupffer cells±standard error.
as §3
FIG. 5 refers to a graphic showing the total number of Kupffer cells quantified with CD163+/CD11b/c+ for 4, 6, 8 and 10 weeks of treatment with CCl4, with an increase during the development of cirrhosis that decreases with the treatment of the compound IFC-305.

[8] = CCl4+IFC-305 50 mg/Kg three times a week vs CCl4, 4, 6 and 8 weeks

Question: How did the “inflammatory cytokines in liver homogenate (cirrhosis high values)” value ([1]; 5 to 10 weeks) turn out when adenosine aspartate [IFC-305] was run?
Answer: reduced

Question: What about the “liver homogenate IL-1β” value ([1]; five and ten weeks) of the same substance?
Answer: decreased compared to cirrhotic control

Question: What about the “liver homogenate IL-4” value ([1]; five and ten weeks) of the same substance?
Answer: decreased compared to cirrhotic control

Question: And the “liver homogenate IL-6” value ([1]; five and ten weeks)?
Answer: regulated

Question: What about the “IL-10 (anti-inflammatory cytokine), liver homogenate” value ([1]; five and ten weeks, 50 mg/kg) of the same substance?
Answer: increased

Question: And the “serum IL-4” value ([2]; 5 weeks)?
Answer: kept in similar values to controls or less; also recorded: maintained in an equal range to the control or lower

Question: What about the “serum IL-6” value ([2]; 5 weeks) of the same substance?
Answer: kept in similar values to controls or less; also recorded: maintained in an equal range to the control or lower

Question: What about the “serum IL-1β” value ([2]; 10 weeks) of the same substance?
Answer: kept in similar values to controls or less; also recorded: maintained in an equal range to the control or lower

Question: And the “serum IL-1β” value [3, 8]?
Answer: decreasing

Question: What about the “serum IL-4” value [3, 8] of the same substance?
Answer: decreasing; also recorded: decreased

Question: And the “serum IL-6” value ([3]; CCl4+IFC-305 50 mg/Kg vs CCl4, 4 and 6 weeks)?
Answer: decreasing; also recorded: decrease

Question: And the “serum IL-6” value ([3]; CCl4+IFC-305 50 mg/Kg, 8 weeks)?
Answer: increase

Question: What about the “arginase (Arginase I) protein in liver homogenate, Western blot” value [4] of the same substance?
Answer: more amount of enzyme

Question: What about the “arginase (Arginase I) protein in liver homogenate, Western blot” value ([4]; 50 mg/kg) of the same substance?
Answer: increased

Question: What about the “Kupffer cells with inflammatory phenotype (M1) CD163+/CD11b/c+” value [5] of the same substance?
Answer: decrease; also recorded: decreasing during the progression of cirrhosis and markedly with the treatment

Question: What about the “total macrophages (HIS36+/CD11b+) in the liver” value [5] of the same substance?
Answer: increases

Question: What about the “liver homogenate IL-1β” value [6] of the same substance?
Answer: decreases

Question: And the “liver homogenate IL-4” value [6]?
Answer: decreases

Question: What about the “liver homogenate IL-6” value [6] of the same substance?
Answer: increase relative to the control

Question: And the “liver homogenate IL-10” value [6]?
Answer: decreases

Question: What about the “liver homogenate IL-12” value [6] of the same substance?
Answer: increase relative to the control

Question: And the “liver homogenate INF-γ” value [6]?
Answer: increase relative to the control

Question: What about the “liver homogenate MCP-1” value [6] of the same substance?
Answer: increase relative to the control

Question: And the “liver homogenate IL-6” value ([6]; listed as adenosine aspartate)?
Answer: increase

Question: What about the “total number of Kupffer cells (CD163+/CD11b/c+) in the liver” value [7] of the same substance?
Answer: decreases
